Assay results as given in US9833510B2, “Modified release solid or semi-solid dosage forms” (Johnson & Johnson Consumer Inc., priority 2007, dated 2017).
Where a name gives a salt, the structure may show the parent alone.

What was measured:
[1] = typical duration of action (period of therapeutic effect) of an immediate release dose, from product labeling; type: in vivo; conditions: for ATDAIRD (average therapeutic duration of action of an effective immediate release dose): average of typical duration range; for ATDAIRD: as restated, unit not given
From the text: As used herein, “ATDAIRD” shall mean the average therapeutic duration of action of an effective immediate release dose” of a particular active ingredient. […] The therapeutic duration of action of a particular active ingredient can readily be determined from the dosing instructions in the labeling for immediate release products containing that particular active ingredient.

[2] = background statement; typically administered every 2 to 4 hours; cited from earlier work

| SMILES | ATDAIRD (average therapeutic duration of action of an effective immediate release dose) [1] [h] | therapeutically effective plasma concentration (duration) [2] | ATDAIRD [1] |
| --- | --- | --- | --- |
| CC(C)Cc1ccc(C(C)C(=O)O)cc1 (stereo not shown) [ibuprofen, 2-(4-isobutylphenyl)-propionic acid] | 5 | – | – |
| COc1ccc2cc([C@H](C)C(=O)O)ccc2c1 [naproxen] | 10 | – | – |
| CNC[C@H](O)c1cccc(O)c1 [phenylephrine hydrochloride] | – | about 2.5 hours | – |
| CC(C(=O)O)c1cccc(C(=O)c2ccccc2)c1 (stereo not shown) [ketoprofen] | 5 | – | – |
| CN[C@@H](C)[C@@H](O)c1ccccc1 [psuedoephedrine] | – | – | about 3 |
| CNC[C@H](O)c1cccc(O)c1 [phenylephrine, benzynemethanol, 3-hydroxy-α-[(methylamino)methyl]] | 3 | – | about 3 |
